{"source": "PubChem BioAssay AID1996"}
{"settings": "buffer; pH 7.4; 200.0 µM", "units": {"solubility kinetic": "mg/mL"}}
{"smiles": "CC1CCC(C(C)C)C(OCC(O)CNC(C)(C)C)C1.Cl", "note": "(centres undefined)", "solubility kinetic": "> 0.0483"}
{"smiles": "CC1CCN(C(=O)CN2C(=O)NC(C)(c3ccc4ccccc4c3)C2=O)CC1", "note": "(centres undefined)", "solubility kinetic": 0.0059}
{"smiles": "Cc1ccc(S(=O)(=O)Nc2c(C)nn(C)c2C)cc1C", "solubility kinetic": "> 0.044"}
{"smiles": "COc1cc2nc(CCc3ccccc3)oc(=O)c2cc1OC", "solubility kinetic": "> 0.0467"}
{"smiles": "O=C(O)c1ccc(Cn2ccc3ccccc32)o1", "solubility kinetic": "> 0.0362"}
{"smiles": "Cc1cc(C)c(C(=O)CSc2nc(C)cc(=O)[nH]2)c(C)c1", "solubility kinetic": 0.014}
{"smiles": "CC1CCC(N2CCNCC2)CC1.Cl", "note": "(centres undefined)", "solubility kinetic": "> 0.0328"}
{"smiles": "Cc1ccc(-c2nc(-c3cccnc3)sc2CC(=O)O)cc1", "solubility kinetic": 0.0424}
{"smiles": "CCC(=O)OCC(=O)Nc1cc([N+](=O)[O-])ccc1Cl", "solubility kinetic": "> 0.043"}
{"smiles": "CC(=O)c1cccc(NC(=O)c2cc(=O)[nH]c3ccc(S(=O)(=O)N4CCOCC4)cc23)c1", "solubility kinetic": 0.0085}
{"smiles": "Cl.O=C(CCN1CCOCC1)NC12CC3CC(CC(C3)C1)C2", "solubility kinetic": 0.0489}
{"smiles": "O=C(NCCc1ccccc1)c1ccccc1[N+](=O)[O-]", "solubility kinetic": 0.0336}
{"smiles": "O=S(=O)(c1ccccc1F)N1CCc2ccccc2C1", "solubility kinetic": "< 0.0006"}
{"smiles": "NC(=O)C1CCN(C(=O)CCc2ccsc2)CC1", "solubility kinetic": "> 0.04"}
{"smiles": "COc1ccc(C(=O)Cn2cc[n+](C)c2)cc1.[Br-]", "solubility kinetic": "> 0.0467"}
{"smiles": "CC(C)c1ccc(OCc2ccc(C(=O)N(C)C)o2)cc1", "solubility kinetic": 0.0332}
{"smiles": "Cc1ccccc1C(=O)N1c2ccccc2OCC1C(C)(C)C", "note": "(centres undefined)", "solubility kinetic": "< 0.0007"}
{"smiles": "O=C(Nc1ccc(Nc2ccccc2)cc1)c1ccc(Cl)cc1", "solubility kinetic": 0.0004}
{"smiles": "Cl.Oc1cc2c(cc1O)C(c1ccccc1)CNCC2", "note": "(centres undefined)", "solubility kinetic": "> 0.0438"}
{"smiles": "Cc1csc(SCC(=O)NC(=O)NC(C)C)n1", "solubility kinetic": "> 0.041"}
{"smiles": "COc1ccc(NC(=O)NC(c2ccccc2)c2ccccc2)c(OC)c1", "solubility kinetic": "< 0.0004"}
{"smiles": "O=C(C1CCCN(S(=O)(=O)c2ccc(Cl)cc2)C1)N1CCCC1", "note": "(centres undefined)", "solubility kinetic": 0.0487}
{"smiles": "O=S(=O)(c1ccc(Cl)cc1)N1CCCC(C(F)(F)F)C1", "note": "(centres undefined)", "solubility kinetic": 0.001}
{"smiles": "CNC(=S)Nc1ccc2nc(C)oc2c1", "solubility kinetic": "> 0.0332"}
{"smiles": "O=C(CSc1nc2ncccc2[nH]1)Nc1ccc2c(c1)OCO2", "solubility kinetic": "> 0.0493"}
{"smiles": "CC(=O)c1cnc(-c2ccccc2Cl)s1", "solubility kinetic": 0.008}
{"smiles": "CC(C)(C)C(=O)CSc1ncccn1", "solubility kinetic": 0.0243}
{"smiles": "O=C(CNc1ccccc1C(=O)O)c1ccccc1", "solubility kinetic": 0.0363}
{"smiles": "COC(=O)C1=C(N)OC2=C(C(=O)CCC2)C1c1ccccc1OC", "note": "(centres undefined)", "solubility kinetic": 0.0145}
{"smiles": "Cc1cccc(NC(=O)Nc2cccc3ccccc23)c1", "solubility kinetic": "< 0.0003"}
{"smiles": "Cc1ccc(Cn2cc(C=O)c3ccccc32)cc1", "solubility kinetic": 0.0117}
{"smiles": "COc1cccc(/C=C/C(=O)NCC2CCCCC2)c1", "solubility kinetic": 0.0164}
{"smiles": "c1ccc(CN2CCC(Nc3ncnc4sccc34)CC2)cc1", "solubility kinetic": 0.0462}
{"smiles": "CCOC(=O)Cc1csc(NC(=O)COC(=O)/C=C/c2ccc(OC)cc2)n1", "solubility kinetic": 0.0045}
{"smiles": "Cc1ccc(S(=O)(=O)NCCN2CCOCC2)s1", "solubility kinetic": "> 0.0436"}
{"smiles": "CC(=O)c1ccc(OC(C)c2nc3ccccc3s2)cc1", "note": "(centres undefined)", "solubility kinetic": 0.0131}
{"smiles": "CCC1(C)Cc2c(sc3[nH]c(=S)[nH]c(=S)c23)CO1", "note": "(centres undefined)", "solubility kinetic": 0.0277}
{"smiles": "Cc1nnc(N)s1", "solubility kinetic": "> 0.0173"}
{"smiles": "Cc1cc(C(=O)OCC(=O)Nc2nccs2)c2ccccc2n1", "solubility kinetic": 0.0068}
{"smiles": "Cc1cc(C)nc(NC(C)(C)C(=O)O)n1", "solubility kinetic": "> 0.0314"}
{"smiles": "CC(=O)c1ccc(N2CCN(C(=O)CCc3ccccc3)CC2)cc1", "solubility kinetic": "> 0.0505"}
{"smiles": "O=C1OCc2nc3cc4c(cc3c(-c3ccc(F)cc3)c21)OCO4", "solubility kinetic": 0.0012}
{"smiles": "Cc1ccc(S(=O)(=O)N2CCOCC2)cc1NC(=O)Nc1ccc([N+](=O)[O-])cc1", "solubility kinetic": 0.0018}
{"smiles": "COc1ccccc1C(=O)NCCC(=O)Nc1cccc(C)n1", "solubility kinetic": "> 0.047"}
{"smiles": "Cc1ccc(S(=O)(=O)NCc2ccncc2)c(C)c1C", "solubility kinetic": 0.0347}
{"smiles": "O=[N+]([O-])c1ccc(NCCCO)c(S(=O)(=O)N2CCOCC2)c1", "solubility kinetic": 0.0488}
{"smiles": "CC(C)N1C(=O)C(=O)N(CC(=O)N(C)c2ccccc2)C1=O", "solubility kinetic": "> 0.0455"}
{"smiles": "COc1ccccc1NS(=O)(=O)c1ccc2ccccc2c1", "solubility kinetic": 0.0121}
{"smiles": "CCNc1ccc(C(=O)OCC(=O)N2CCCC2)cc1[N+](=O)[O-]", "solubility kinetic": 0.0439}
{"smiles": "COc1ccc(NC(=O)COC(=O)C2C3CC4OC(=O)C2C4C3)cc1", "note": "(centres undefined)", "solubility kinetic": "> 0.0518"}
{"smiles": "CCCCNC(=O)c1cc(S(=O)(=O)N2CCCCC2)oc1C", "solubility kinetic": 0.024}
{"smiles": "Cc1cc(C)c2cc(C(=O)N3CCC(Cc4ccccc4)CC3)[nH]c2c1", "solubility kinetic": "< 0.0004"}
{"smiles": "C=CCNC(=O)c1cc2cccc(OC)c2oc1=O", "solubility kinetic": "> 0.0389"}
{"smiles": "O=C(NCc1cccnc1)c1nn2cccnc2c1Cl", "solubility kinetic": "> 0.0432"}
{"smiles": "Cc1ccc(-c2nc3ccccc3c(=O)n2-c2cccc(C)n2)cc1", "solubility kinetic": "> 0.0491"}
{"smiles": "O=C(O)CSC1CC(=O)N(c2ccc(Br)cc2)C1=O", "note": "(centres undefined)", "solubility kinetic": "> 0.0516"}
{"smiles": "COc1ccc(Nc2ncc(C#N)c(N)n2)c(OC)c1", "solubility kinetic": 0.0066}
{"smiles": "O=S1(=O)CCN(Cc2ccccc2C(F)(F)F)CC1", "solubility kinetic": "> 0.044"}
{"smiles": "O=c1ccc2cc3c([nH]c4ccc(Br)cc43)oc-2c1O", "solubility kinetic": "> 0.0495"}
